Laboratory results: patent US9580444B2, “Polycyclic pyrazolinone derivative and herbicide comprising same as effective component thereof” (priority 2013, dated 2017)

Columns and labels:
Format in all cases: in vivo
corn [1] = assay: Test Example-4: phytotoxicity by a foliage treatment after weeds are generated under upland field conditions; conditions: 500 g a.i/ha, foliage treatment after emergence, about 14 days after treatment, score 0-5
Outline: (§1)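 Compounds were applied as diluted formulations by foliar spray (4000 L water/ha) to 14-day-old plants grown in upland soil. Weed control and corn phytotoxicity were each graded 0 to 5 around 14 days after spraying.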

[2] = tested on: Chenopodium album (common lambsquarters); assay: Test Example-4: herbicidal effect by a foliage treatment after weeds are generated under upland field conditions; conditions: 500 g a.i/ha, foliage treatment after emergence, about 14 days after treatment, score 0-5
Outline: as §1

[3] = tested on: Abutilon theophrasti (velvetleaf); assay: as above; conditions: 500 g a.i/ha, foliage treatment after emergence, about 14 days after treatment, score 0-5
Outline: as §1

[4] = tested on: Amaranthus viridis (green amaranthus); assay: as above; conditions: 500 g a.i/ha, foliage treatment after emergence, about 14 days after treatment, score 0-5
Outline: as §1

[5] = tested on: Chenopodium album (common lambsquarters); assay: Test Example-2: herbicidal effect by a soil treatment before weeds are generated under upland field conditions; conditions: application amount 500 g a.i/ha, soil spray treatment before weeds are generated, about 21 days after the treatment, score 0 to 5
Outline: (§2)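 Pre-emergence soil treatment: seeds sown in upland soil and covered with about 0.5 cm soil were sprayed the next day with diluted wettable powder or emulsifiable concentrate at a predetermined dosage. Weed control and corn injury were scored on a 0–5 scale about 21 days after treatment.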

[6] = tested on: Amaranthus viridis (green amaranthus); assay: as above; conditions: application amount 500 g a.i/ha, soil spray treatment before weeds are generated, about 21 days after the treatment, score 0 to 5
Outline: as §2

corn [7] = assay: Test Example-2: phytotoxicity by a soil treatment before weeds are generated under upland field conditions; conditions: application amount 500 g a.i/ha, soil spray treatment before weeds are generated, about 21 days after the treatment, score 0 to 5
Outline: as §2

[8] = tested on: other annual broad leaf weeds (Lindernia procumbens, Rotala indica, Elatine triandra); assay: Test Example-1: herbicidal effect by a treatment before weeds are generated under submerged conditions; conditions: 500 g a.i/ha, pre-emergence treatment, about 15 days after treatment, score 0-5
Outline: (§3)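 Flooded paddy-soil cups, seeded and treated by submersion application on sowing day; rated 0–5 ~15 d later.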

[9] = tested on: Eleocharis acicularis (needle spikerush); assay: as above; conditions: 500 g a.i/ha, pre-emergence treatment, about 15 days after treatment, score 0-5
Outline: as §3

[10] = tested on: Monochoria vaginalis (monochoria); assay: as above; conditions: 500 g a.i/ha, pre-emergence treatment, about 15 days after treatment, score 0-5
Outline: as §3

[11] = tested on: Scirpus juncoides (bulrush); assay: as above; conditions: 500 g a.i/ha, pre-emergence treatment, about 15 days after treatment, score 0-5
Outline: as §3

[12] = tested on: Echinochloa oryzicola (barnyard grass); assay: as above; conditions: 500 g a.i/ha, pre-emergence treatment, about 15 days after treatment, score 0-5
Outline: as §3

[13] = tested on: Cyperus difformis (smallflower umbrella plant); assay: as above; conditions: 500 g a.i/ha, pre-emergence treatment, about 15 days after treatment, score 0-5
Outline: as §3

C#CCOc1cc(-c2c(Cl)n3n(c2=O)CCCC3)c(Cl)cc1Cl [Example 1-302]
Phytotoxicity Corn (corn [1]): 1 (Herbicidal effect/phytotoxicity was 10% to 30%) | Herbicidal effect Chenopodium album [2]: 5 (Herbicidal effect/phytotoxicity was 90% or greater) | Herbicidal effect Abutilon theophrast [3]: 5 (Herbicidal effect/phytotoxicity was 90% or greater) | Herbicidal effect Amaranthus viridis [4]: 5 (Herbicidal effect/phytotoxicity was 90% or greater) | Herbicidal effect Chenopodium album [5]: 5 (Herbicidal effect/phytotoxicity was 90% or greater) | Herbicidal effect Amaranthus viridis [6]: 5 (Herbicidal effect/phytotoxicity was 90% or greater) | Phytotoxicity Corn (corn [7]): 2 (Herbicidal effect/phytotoxicity was 30% to 50%) | Herbicidal effect Broadleaf weed [8]: 5 (Herbicidal effect/phytotoxicity was 90% or greater) | Herbicidal effect Eleocharis acicularis [9]: 5 (Herbicidal effect/phytotoxicity was 90% or greater) | Herbicidal effect Monochoria vaginalis [10]: 5 (Herbicidal effect/phytotoxicity was 90% or greater) | Herbicidal effect Scirpus juncoides [11]: 5 (Herbicidal effect/phytotoxicity was 90% or greater) | Herbicidal effect Echinochloa oryzicola [12]: 5 (Herbicidal effect/phytotoxicity was 90% or greater) | Herbicidal effect Cyperus difformis [13]: 5 (Herbicidal effect/phytotoxicity was 90% or greater)

C#CC(C)Oc1cc(-c2c(Cl)n3n(c2=O)CCCC3)c(F)cc1Cl (centres unmarked) [Example 1-243]
Phytotoxicity Corn (corn [1]): 1 (Herbicidal effect/phytotoxicity was 10% to 30%) | Herbicidal effect Chenopodium album [2]: 5 (Herbicidal effect/phytotoxicity was 90% or greater) | Herbicidal effect Abutilon theophrast [3]: 5 (Herbicidal effect/phytotoxicity was 90% or greater) | Herbicidal effect Amaranthus viridis [4]: 5 (Herbicidal effect/phytotoxicity was 90% or greater) | Herbicidal effect Chenopodium album [5]: 5 (Herbicidal effect/phytotoxicity was 90% or greater) | Herbicidal effect Amaranthus viridis [6]: 5 (Herbicidal effect/phytotoxicity was 90% or greater) | Phytotoxicity Corn (corn [7]): 0 (Herbicidal effect/phytotoxicity was 0% to 10%) | Herbicidal effect Broadleaf weed [8]: 5 (Herbicidal effect/phytotoxicity was 90% or greater) | Herbicidal effect Eleocharis acicularis [9]: 5 (Herbicidal effect/phytotoxicity was 90% or greater) | Herbicidal effect Monochoria vaginalis [10]: 5 (Herbicidal effect/phytotoxicity was 90% or greater) | Herbicidal effect Scirpus juncoides [11]: 5 (Herbicidal effect/phytotoxicity was 90% or greater) | Herbicidal effect Echinochloa oryzicola [12]: 5 (Herbicidal effect/phytotoxicity was 90% or greater) | Herbicidal effect Cyperus difformis [13]: 5 (Herbicidal effect/phytotoxicity was 90% or greater)

C=C(Cl)COc1cc(-c2c(Cl)n3n(c2=O)CCCC3)c(F)cc1Cl [Example 1-369]
Phytotoxicity Corn (corn [1]): 1 (Herbicidal effect/phytotoxicity was 10% to 30%) | Herbicidal effect Chenopodium album [2]: 5 (Herbicidal effect/phytotoxicity was 90% or greater) | Herbicidal effect Abutilon theophrast [3]: 5 (Herbicidal effect/phytotoxicity was 90% or greater) | Herbicidal effect Amaranthus viridis [4]: 5 (Herbicidal effect/phytotoxicity was 90% or greater) | Herbicidal effect Chenopodium album [5]: 5 (Herbicidal effect/phytotoxicity was 90% or greater) | Herbicidal effect Amaranthus viridis [6]: 5 (Herbicidal effect/phytotoxicity was 90% or greater) | Phytotoxicity Corn (corn [7]): 0 (Herbicidal effect/phytotoxicity was 0% to 10%) | Herbicidal effect Broadleaf weed [8]: 5 (Herbicidal effect/phytotoxicity was 90% or greater) | Herbicidal effect Eleocharis acicularis [9]: 5 (Herbicidal effect/phytotoxicity was 90% or greater) | Herbicidal effect Monochoria vaginalis [10]: 5 (Herbicidal effect/phytotoxicity was 90% or greater) | Herbicidal effect Scirpus juncoides [11]: 5 (Herbicidal effect/phytotoxicity was 90% or greater) | Herbicidal effect Echinochloa oryzicola [12]: 5 (Herbicidal effect/phytotoxicity was 90% or greater) | Herbicidal effect Cyperus difformis [13]: 5 (Herbicidal effect/phytotoxicity was 90% or greater)

C#CCOc1cc(-c2c(F)n3n(c2=O)CCCC3)c(Cl)cc1Cl [Example 1-358]
Phytotoxicity Corn (corn [1]): 1 (Herbicidal effect/phytotoxicity was 10% to 30%) | Herbicidal effect Chenopodium album [2]: 5 (Herbicidal effect/phytotoxicity was 90% or greater) | Herbicidal effect Abutilon theophrast [3]: 5 (Herbicidal effect/phytotoxicity was 90% or greater) | Herbicidal effect Amaranthus viridis [4]: 5 (Herbicidal effect/phytotoxicity was 90% or greater) | Herbicidal effect Chenopodium album [5]: 5 (Herbicidal effect/phytotoxicity was 90% or greater) | Herbicidal effect Amaranthus viridis [6]: 5 (Herbicidal effect/phytotoxicity was 90% or greater) | Phytotoxicity Corn (corn [7]): 0 (Herbicidal effect/phytotoxicity was 0% to 10%) | Herbicidal effect Broadleaf weed [8]: 5 (Herbicidal effect/phytotoxicity was 90% or greater) | Herbicidal effect Eleocharis acicularis [9]: 5 (Herbicidal effect/phytotoxicity was 90% or greater) | Herbicidal effect Monochoria vaginalis [10]: 5 (Herbicidal effect/phytotoxicity was 90% or greater) | Herbicidal effect Scirpus juncoides [11]: 5 (Herbicidal effect/phytotoxicity was 90% or greater) | Herbicidal effect Echinochloa oryzicola [12]: 5 (Herbicidal effect/phytotoxicity was 90% or greater) | Herbicidal effect Cyperus difformis [13]: 5 (Herbicidal effect/phytotoxicity was 90% or greater)

COc1cc(-c2c(Cl)n3n(c2=O)CCCC3)c(Cl)cc1Cl [Example 1-292]
Phytotoxicity Corn (corn [1]): 1 (Herbicidal effect/phytotoxicity was 10% to 30%) | Herbicidal effect Chenopodium album [2]: 5 (Herbicidal effect/phytotoxicity was 90% or greater) | Herbicidal effect Abutilon theophrast [3]: 5 (Herbicidal effect/phytotoxicity was 90% or greater) | Herbicidal effect Amaranthus viridis [4]: 5 (Herbicidal effect/phytotoxicity was 90% or greater) | Herbicidal effect Chenopodium album [5]: 5 (Herbicidal effect/phytotoxicity was 90% or greater) | Herbicidal effect Amaranthus viridis [6]: 5 (Herbicidal effect/phytotoxicity was 90% or greater) | Phytotoxicity Corn (corn [7]): 2 (Herbicidal effect/phytotoxicity was 30% to 50%) | Herbicidal effect Broadleaf weed [8]: 5 (Herbicidal effect/phytotoxicity was 90% or greater) | Herbicidal effect Eleocharis acicularis [9]: 5 (Herbicidal effect/phytotoxicity was 90% or greater) | Herbicidal effect Monochoria vaginalis [10]: 5 (Herbicidal effect/phytotoxicity was 90% or greater) | Herbicidal effect Scirpus juncoides [11]: 5 (Herbicidal effect/phytotoxicity was 90% or greater) | Herbicidal effect Echinochloa oryzicola [12]: 5 (Herbicidal effect/phytotoxicity was 90% or greater) | Herbicidal effect Cyperus difformis [13]: 5 (Herbicidal effect/phytotoxicity was 90% or greater)
